Assay [1] has as its target Adenosine receptors; A1 & A2 (Rattus norvegicus) (UniProt P29276+P25099+P30543). The assay can be described thus: Ratio of Ki values of A1 adenosine and A2 adenosine receptor. In kind it is protein assay.
In assay [2] the test system is Rattus norvegicus. Nature of the assay: Antihypertensive activity measured as change in heart rate was measured for a 10-h after 10 mg/kg oral dose. In kind it is functional. The conditions noted are these: 10 mg/kg.
The target in assay [3] is Adenosine A2 receptor (Rattus norvegicus, UniProt P29276+P30543). The assay can be described thus: Binding affinity towards adenosine A2 receptor. In kind it is protein assay.
The target of assay [4] is T1, Adenosine receptor A1 (Rattus norvegicus, UniProt P25099).
T1 sequence (P25099 whole entry): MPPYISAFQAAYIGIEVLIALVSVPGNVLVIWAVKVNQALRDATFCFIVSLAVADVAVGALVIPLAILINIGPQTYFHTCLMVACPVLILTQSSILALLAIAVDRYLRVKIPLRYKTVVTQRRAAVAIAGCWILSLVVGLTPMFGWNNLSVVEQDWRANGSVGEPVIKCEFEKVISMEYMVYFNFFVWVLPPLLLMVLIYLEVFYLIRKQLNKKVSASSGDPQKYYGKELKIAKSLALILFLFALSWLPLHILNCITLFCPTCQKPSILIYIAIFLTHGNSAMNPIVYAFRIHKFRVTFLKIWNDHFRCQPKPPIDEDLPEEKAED
The assay can be described thus: Binding affinity towards adenosine A1 receptor.

Assay [5] deals with Rattus norvegicus. The assay can be described thus: Antihypertensive activity measured as change in blood pressure for a 10-h after 10 mg/kg oral dose in rat. In kind it is functional. The following applies: 10 mg/kg.

A value given as a limit tells only on which side of the number the result lay.

Broadly, the Ki is the equilibrium dissociation constant of an inhibitor or competing ligand from its target.

On to `COc1ccc2c(c1)C(Nc1ncnc3c1ncn3[C@@H]1O[C@H](CO)[C@@H](O)[C@H]1O)CCC2` (single isomer, unassigned; isomer A) [listing 1 of 2 here], for which the Ratio in assay [1] worked out at 13.2.

As for `COc1ccc2c(c1)C(Nc1ncnc3c1ncn3[C@@H]1O[C@H](CO)[C@@H](O)[C@H]1O)CCC2` (single isomer, unassigned; isomer B) [listing 1 of 2 here], the Change is recorded as 37% in assay [2] and -44% in assay [5]. Also, the Ki was 274 nM in assay [3] and 12.1 nM in assay [4].

Regarding `COc1ccc2c(c1)C(Nc1ncnc3c1ncn3[C@@H]1O[C@H](CO)[C@@H](O)[C@H]1O)CCC2` (stereo in doubt; 31), the Ratio in assay [1] was determined as 27.

Regarding `CCCCOc1ccc2c(c1)CCC2Nc1ncnc2c1ncn2[C@@H]1O[C@H](CO)[C@@H](O)[C@H]1O` (single isomer, unassigned; isomer B) [listing 1 of 2 here], in assay [1], the Ratio turned out to be 81.7.

With `CCCCOc1ccc2c(c1)CCC2Nc1ncnc2c1ncn2[C@@H]1O[C@H](CO)[C@@H](O)[C@H]1O` (single isomer, unassigned; isomer B) [listing 2 of 2 here], the Change in assay [2] was -13%; in assay [5], -31%. Besides, the Ki amounted to 3946 nM in assay [3] and 48.3 nM in assay [4].

Regarding `COc1ccc2c(c1)CCC2Nc1ncnc2c1ncn2[C@@H]1O[C@H](CO)[C@@H](O)[C@H]1O` (single isomer, unassigned; isomer A), the Ratio in assay [1] came to 120.

With `CCCCOc1ccc2c(c1)CCC2Nc1ncnc2c1ncn2[C@@H]1O[C@H](CO)[C@@H](O)[C@H]1O` (stereo in doubt; 15) [listing 1 of 2 here], the Ratio in assay [1] came to 126.

Regarding `COc1ccc2c(c1)C(Nc1ncnc3c1ncn3[C@@H]1O[C@H](CO)[C@@H](O)[C@H]1O)CCC2` (single isomer, unassigned; isomer B) [listing 2 of 2 here], the Ratio in assay [1] was found to be 22.7.

As to `CCCCOc1ccc2c(c1)CCC2Nc1ncnc2c1ncn2[C@@H]1O[C@H](CO)[C@@H](O)[C@H]1O` (single isomer, unassigned; isomer A) [listing 1 of 2 here], the Ratio in assay [1] was 2370.

For `COc1ccc2c(c1)C(Nc1ncnc3c1ncn3[C@@H]1O[C@H](CO)[C@@H](O)[C@H]1O)CCC2` (single isomer, unassigned; isomer A) [listing 2 of 2 here], the Change in assay [2] and in assay [5] was under 10% each time. For the same compound, the inhibition constant Ki was found to be 34060 nM in assay [3] and 2580 nM in assay [4].

As for `CCCCOc1ccc2c(c1)CCC2Nc1ncnc2c1ncn2[C@@H]1O[C@H](CO)[C@@H](O)[C@H]1O` (stereo in doubt; 15) [listing 2 of 2 here], the values for the Change in assay [2] and in assay [5] were -28% and -46%, respectively. Also, the results for the Ki in assay [3] and in assay [4] were 5922 nM and 46.9 nM, respectively.

As to `COc1ccc2c(c1)CCC2Nc1ncnc2c1ncn2[C@@H]1O[C@H](CO)[C@@H](O)[C@H]1O` (single isomer, unassigned; isomer b) [listing 1 of 2 here], the Change in assay [2] is recorded as -11%; in assay [5] it was -25%. The Ki in assay [3] was 1450 nM; in assay [4], 41.7 nM.

For `CCCCOc1ccc2c(c1)CCC2Nc1ncnc2c1ncn2[C@@H]1O[C@H](CO)[C@@H](O)[C@H]1O` (single isomer, unassigned; isomer A) [listing 2 of 2 here], the Change in assay [2] is listed as 15%; in assay [5], under 10%. The Ki in assay [3] was determined as 103200 nM; in assay [4], 43.6 nM.

As for `COc1ccc2c(c1)CCC2Nc1ncnc2c1ncn2[C@@H]1O[C@H](CO)[C@@H](O)[C@H]1O` (single isomer, unassigned; isomer b) [listing 2 of 2 here], in assay [1], the Ratio was found to be 34.8.

As to `COc1ccc2c(c1)CCC2Nc1ncnc2c1ncn2[C@@H]1O[C@H](CO)[C@@H](O)[C@H]1O` (stereo in doubt; 4) [listing 1 of 2 here], the Ratio in assay [1] was determined as 73.

On to `COc1ccc2c(c1)CCC2Nc1ncnc2c1ncn2[C@@H]1O[C@H](CO)[C@@H](O)[C@H]1O` (stereo in doubt; 4) [listing 2 of 2 here], for which the Change was -33% in assay [2] and -40% in assay [5]. In addition, the Ki in assay [3] was determined as 4350 nM; in assay [4], 59.5 nM.

For the origin of these results see ChEMBL document CHEMBL1125617, “N6-substituted adenosine receptor agonists: potential antihypertensive agents” (J Med Chem, 1991).
